Reference: patent US9295667B2, “Pharmaceutical composition for preventing or treating diabetes or fatty liver containing a CYP4A inhibitor as an active ingredient” (Korea Basic Science Institute, priority 2011, dated 2016)

Columns and labels:
[1] = system: db/db mice; test: Intraperitoneal glucose tolerance test (IPGTT) in db/db mice; format: in vivo; conditions: 5 mg/kg/day intraperitoneal, 2 weeks, 1 g/kg glucose
Method: (§1) Male C57BL/6J and C57BL/KsJ-db/db mice were purchased from Japan SLC. HET0016 (5 mg/kg/day) and clofibrate (400 mg/kg/day) were injected intraperitoneally into eight (8)-week-old mice for two (2) weeks. Control littermate mice for HET0016 were treated with DMSO, while control littermate mice for clofibrate were treated with corn oil. Intraperitoneal glucose tolerance test (IPGTT) was performed after overnight fasting followed by intraperitoneal injection of lg/kg of glucose dissolved in PBS. The concentrations of blood glucose were measured using a One Touch Ultra glucometer (LifeScan, Inc.) before (0 min) and at 15, 30, 60, 90 and 120 min. after glucose injection. Livers isolated from 10-week-old mice were fixed in 10% neutral buffered formalin solution (Sigma), and paraffin sections were stained with hematoxylin-eosin.

[2] = system: db/db mice; test: Level of blood glucose following 6 hours' fasting in db/db mice; format: in vivo; conditions: 5 mg/kg/day intraperitoneal, 2 weeks
Method: as §1, with “Intraperitoneal glucose tolerance test (IPGTT) was performed after overnight fasting followed by intraperitoneal injection of lg/kg of glucose dissolved in PBS.” left out

[3] = system: db/db mice; test: Serum insulin ELISA in db/db mice; format: in vivo; conditions: 5 mg/kg/day intraperitoneal, 2 weeks
Method: (§2) While the mice were sacrificed, their blood was obtained with their hearts being punctured. The concentration of serum insulin was determined by using a commercial mouse serum insulin ELISA kit (Shibayagi Co., Ltd.) according to the manufacturer's instructions. Lipid peroxidation was measured by using OxiSelect™ TBARS Assay Kit (Cell Biolabs, Inc.) to quantify malondialdehyde (MDA), a natural by-product of lipid peroxidation in the liver homogenates. The level of triglyceride in the mice livers was measured by using Triglyceride Quantification Kit (Abcam).

[4] = system: db/db mice; test: Liver tissue sections, hematoxylin-eosin staining, db/db mice; format: in vivo; conditions: 5 mg/kg/day intraperitoneal, 2 weeks
Method: as §1

[5] = system: db/db mice; test: TBARS assay of MDA formation (lipid peroxidation) in liver of db/db mice; format: in vivo; conditions: 5 mg/kg/day intraperitoneal, 2 weeks
Method: as §2

[6] = system: ER stress markers (PERK, phospho-eIF2α, CHOP, phospho-JNK); test: Western blotting of ER stress markers in liver tissues of db/db mice; format: in vivo; conditions: 5 mg/kg/day intraperitoneal, 2 weeks
Method: as §1
Liver microsomes were prepared from fresh mice livers by applying a slight modification to the above described methods. Separated livers were thoroughly sprinkled with 1.15% KCl solution. Subsequently, the livers were homogenized with 4 times volume of a homogenizing buffer (0.1 M Tris-HCl, pH 7.4; 0.1 M KCl; […], pH 7.5; 25 μM butylated hydroxyltoluene). In order to remove un-destructed cells, nuclei and mitochondria, the obtained homogenate was centrifuged in a low-powered centrifugation (1,000× g, 4° C. for 15 min.) The obtained supernatant was then centrifuged in a higher powered centrifugation (100,000× g, 4° C. for 60 min.), resulting in the precipitation of microsomes. Pellets of compactly packed microsomes were re-suspended in 3 ml of an ice-cooled pyrophosphate buffer (0.1 M potassium pyrophosphate; 1 mM EDTA, pH 7.5; 20 μM butylated hydroxyltoluene) by using a homogenizer, followed by further centrifugation at 100,000× g, 4° C. for 60 min. The washed microsome pellets were finally suspended in 2 ml of an ice-cooled microsome buffer (10 mM Tris-HCl, pH 7.4; 1 mM EDTA, pH 7.5; 20% glycerol).
(§3) Proteins were denatured at 95° C., and separated by SDS-PAGE, followed by electroblotting on a membrane made of nitrocellulose (NC) or polyvinylidene difluoride (PVDF). After blocking in TBST (Tris-buffered Saline, 0.1% Tween-20) containing 5% non-fat milk (skim milk) or 5% bovine serum albumin (BSA), the membrane was incubated with labeled primary antibodies. Subsequently, the membrane was washed with TBST and further incubated with secondary antibodies coupled with horseradish peroxides. Protein blots were detected by using ECL kit and visualized by a luminescence imaging analyzer of LAS-4000 mini system and software (FujiFilm). […]

[7] = system: insulin receptor (IR) and Akt; test: In vivo insulin signaling (phosphorylation of IR and Akt) in liver of db/db mice; conditions: 5 mg/kg/day intraperitoneal, 2 weeks
Method: as §1
as §3, with “Subsequently, the membrane was washed with TBST and further incubated with secondary antibodies coupled with horseradish peroxides.” left out

[8] = system: cleaved Caspase-3 and -9, Bax and Bcl-2; test: Apoptosis markers by Western blotting in liver of db/db mice; format: in vivo; conditions: 5 mg/kg/day intraperitoneal, 2 weeks
Method: as §1
(§4) Proteins were denatured at 95° C., and separated by SDS-PAGE, followed by electroblotting on a membrane made of nitrocellulose (NC) or polyvinylidene difluoride (PVDF). After blocking in TBST (Tris-buffered Saline, 0.1% Tween-20) containing 5% non-fat milk (skim milk) or 5% bovine serum albumin (BSA), the membrane was incubated with labeled primary antibodies. Subsequently, the membrane was washed with TBST and further incubated with secondary antibodies coupled with horseradish peroxides. Protein blots were detected by using ECL kit and visualized by a luminescence imaging analyzer of LAS-4000 mini system and software (FujiFilm). Following antibodies were utilized: mouse anti-β-actin (sc-47778), rabbit anti-CYP4A (sc-98988, Santa Cruz Biotechnology), mouse anti-ATF6 (IMG-273, Imgenex), mouse anti-eIF2α (ab5369), rabbit anti-phospho-eIF2α Ser51 (ab32157), rabbit anti-IRE1 (ab37073, Abcam), rabbit anti-PERK(#3192), rabbit anti-phospho-PERK Thr980 (#3179), rabbit anti-BiP (#3177), mouse anti-CHOP (#2895), rabbit anti-SAPK/JNK (#9252), rabbit anti-phospho-SAPK/JNK […] (#9251), rabbit anti-Insulin receptor β (#3025), rabbit anti-phospho-Insulin receptor β Tyr1150/1151 (#3024), rabbit anti-Akt (#4691), rabbit anti-phospho-Akt Ser473 (#4060), rabbit anti-Bcl-2 (#2876), rabbit anti-Bax (#2772), rabbit anti-divided caspase-3 (#9664), rabbit anti-divided caspase-9 (#9509), rabbit anti-Bax (#2772, Cell Signaling Technology), rabbit anti-ERP72 (obtained from Dr. O. Y. Kwon, College of Medicine, Chungnam National University).

[9] = system: human hepatoma HepG2 cells; test: Tunicamycin-induced ER stress in HepG2 cells, Western blotting; format: cell-based; conditions: 4 μg/ml tunicamycin, combined treatment HET0016, 6 hours
Method: HepG2 cells were cultured in a Dulbecco's Modified Eagle Medium (DMEM, Gibco) Low Glucose supplemented with heat-inactivated 10% fetal bovine serum (FBS) and antibiotics at 37° C. in the presence of 5% moisturized CO2 and 95% air. The above cells were plated in a concentration of 3×10^4 cells/cm^2 and maintained in the cell culture medium for 24 hours prior to the following chemical processing. […] As a control, HepG2 cells were treated with DMSO.
as §4

[10] = system: C57BL/6J mice; test: IPGTT in normal C57BL/6J mice; format: in vivo; conditions: normal wild type C57BL/6J mice, same doses as db/db mice (5 mg/kg/day intraperitoneal, 2 weeks)
Method: as §1

[11] = system: C57BL/6J mice; test: Serum insulin ELISA in normal C57BL/6J mice; format: in vivo; conditions: normal wild type C57BL/6J mice, 5 mg/kg/day intraperitoneal, 2 weeks
Method: as §2

[12] = system: C57BL/6J mice; test: Liver tissue sections, hematoxylin-eosin staining, C57BL/6J mice; format: in vivo; conditions: normal wild type C57BL/6J mice, 5 mg/kg/day intraperitoneal, 2 weeks
Method: as §1

[13] = system: C57BL/6J mice; test: Liver triglyceride (TG) level in C57BL/6J mice; format: in vivo; conditions: normal wild type C57BL/6J mice, 5 mg/kg/day intraperitoneal, 2 weeks
Method: as §2

SMILES: CCCCc1ccc(N=CNO)c(C)c1 [HET0016, N-hydroxy-N′-(4-butyl-2-methylphenyl)-formamidine]
- insulin resistance (IPGTT) [1]: significantly improved
- level of blood glucose [2]: decreased
- level of serum insulin [3]: notably reduced
- severe hepatic steatosis [4]: relieved
- increase of hepatic lipid peroxidation (MDA) [5]: notably reduced
- activation of JNK [6]: markedly decreased
- activity of PERK downstream signaling (phosphorylation status of eIF2α, expression level of CHOP) [6]: reduced
- expression of Cyp4a [6]: not changed
- expression of PERK [6]: reduced
- phosphorylation of Akt [7]: increased
- phosphorylation of insulin receptor (IR) [7]: increased
- apoptosis of the diabetic liver tissues [8]: inhibited
- expression of Bax [8]: suppressed
- expression of Bcl-2 [8]: increased
- level of active forms of caspase-3 and -9 [8]: reduced
- expression of PERK [9]: remarkably down-regulate
- expression of phospho-JNK [9]: remarkably down-regulate
- expression of phospho-eIF2α [9]: remarkably down-regulate
- insulin resistance (IPGTT) [10]: not altered
- serum insulin level [11]: no differences
- hepatic physiology (liver sections) [12]: no differences
- hepatic steatosis (level of TG) [13]: no differences
